Laboratory results reported in publication PMC6212493, “Development and evaluation of a novel series of Nitroxoline-derived BET inhibitors with antitumor activity in renal cell carcinoma” (Oncogenesis, 2018).
“Also recorded” adds a separate entry of the source.

Experiments:
BRD4-BD1 = target: T1, BRD4-BD1 (Homo sapiens, UniProt O60885); assay: ALPHA screen assay, displacement of BRD4-BD1 from acetylated H4 peptide; format: binding
T1 construct: with the first bromodomain of BRD4 (BRD4-BD1) were solved; 6xHis (N); made in house; host or cells: Escherichia coli BL21 (DE3)
Description: (§1) Amplified Luminescent Proximity Homogeneous Assay (ALPHA) screen assay was used to determine the IC50 of compounds for competitive displacement of BRD4_BD1 from the acetylated H4 peptide. As previously described, 2.5 μL compounds and 2.5 μL proteins were added into each well of 384-well plates and incubated at room temperature for 15 min. To start the reaction, 5 μL substrate peptide was added and incubated at room temperature for 5 min. Subsequently, 5 µL nickel-chelate acceptor beads (PerkinElmer) and 5 µL streptavidin-conjugate donor beads (PerkinElmer) were added. After 60 min incubation at room temperature, data were collected by EnVision (PerkinElmer) and analyzed using GraphPad Prism 5.0.

RCTEC normal cell line = assay: Viability of normal cells, RCTEC; format: cell-based; conditions: at similar concentrations as RCC cells
Description: (§2) RCC cells 786-O, 769-P, A498, and ACHN were purchased from ATCC. All the cells were authenticated by STR profiling at Genesky Biopharma Technology and tested for Mycoplasma contamination. […] For the viability assay, cells were plated on 96-well plates at the density of 0.5–1 × 10^3/well. After cell attachment, various concentrations of compounds and DMSO were added, the plates were incubated for 7 days. After the addition of 10 μL Alamar Blue and incubation for 3 h at 37 °C, fluorescent signals were measured with a PE Envision reader, at the wavelength of 544 nm for excitation and 590 nm for emission. Finally, the percentages of viability were calculated by normalizing against the control.

786-O cells = assay: Alamar Blue viability assay, 786-O; format: cell-based
Description: as §2

[1] = system: non-BET BRD-containing proteins (SMACAR, BPTF, PCAF) and epigenetic enzymes; assay: In vitro selective assay at 3 μM, non-BET bromodomain proteins and epi-enzymes; format: biochemical
Description: (§3) First, we compared the inhibitory activity of BDF-1253 to displace BRD4-BD1 or BRD4-BD2 domain from acetylated H4 peptide using ALPHA assay. […] An in vitro selective assay was also conducted to examine the effect of BDF-1253 at 3 μM on the other BET proteins, other BRD proteins out of BET family (SMACAR, BPTF, PCAF) as well as several epigenetic enzymes.
(§4) Determination of inhibition against BET family members, bromodomain proteins out of the BET family as well as several epi-enzymes by BDF-1253 at 3 μM.

[2] = system: c-Myc, Bcl-2, and CDK6 mRNA expression; assay: Real-time PCR of BET downstream genes in RCC cells; format: cell-based; conditions: relative to DMSO control, normalized to β2-microglobulin
Description: Trizol reagent (Vazyme) was used to extract total RNA of ccRCC tumor samples or cells following manufacturer’s instructions. Synthesis of complementary DNA (cDNA) was done using the HiScript® II RT SuperMix (Vazyme). StepOnePlus (Life Technologies) apparatus was applied to carry out quantitative real-time PCR (qPCR). Gene-specific data were normalized to β2-microglobulin and are calculated as relative expression compared to DMSO or control group using the ΔΔCT method.

HUVEC normal cell line = assay: Viability of normal cells, HUVEC; format: cell-based; conditions: at similar concentrations as RCC cells
Caki cells = assay: Alamar Blue viability assay, Caki; format: cell-based; conditions: 168 h, treatment for 7 days, read-out: IC50, cell viability
786-O xenograft tumor = assay: RCC xenograft mice model (786-O); format: in vivo, nude mice; conditions: 50 mg/kg intraperitoneally daily
Description: All animal experiments were approved by IACUC (Institutional Animal Care and Use Committee) of Shanghai Institute of Materia Medica. Four to six-week-old female nude mice purchased from Silaike Laboratory Animal Ltd. were subcutaneously inoculated with 5 × 10^6 786-O cells in 100 μL PBS. All nude mice were raised under pathogen-free conditions to achieve tumor growth. Sample size of each group (n = 7) was chosen following the instruction by http://www.biomath.info. As long as the tumor sizes reached palpable stage, the mice were randomly divided into two groups (n = 7/group). One group is for compound BDF-1253 treatment trials and the other group is the control group. […] These mice were treated intraperitoneally with either diluted compound BDF-1253 of 50 mg/kg or vehicle on a daily basis. Tumor volume was evaluated every 3 days using Vernier calipers and calculated with the equation: length × width^2 × 0.5. Animals were killed when their tumors reached 2 cm^3.

BET family proteins = assay: In vitro selective assay at 3 μM, BET proteins; format: binding
Description: as §3, §4

[3] = system: c-Myc, Bcl-2, Bax, cleaved-PARP, cleaved-Caspase3 protein abundance; assay: Western blot of BET downstream and apoptosis proteins in RCC cells; format: cell-based; conditions: immunoblot
Description: Protein lysates from tissue samples were obtained using RIPA buffer supplemented with protease and phosphatase inhibitors. For the cellular samples, cells were collected following treatment with DMSO and compounds. Western blot was performed as previously described.[25] The primary antibodies were BRD2 (A302-583A, Bethyl), BRD3 (A302-368A, Bethyl), BRD4 (A301-985A, Bethyl), MYC (sc-40, Santa Cruz Biotechnology), BCL2 (ab7973, Abcam), BAX (ab32503, Abcam), cleaved PARP (Cell Signaling, #5625). The secondary antibodies were anti-rabbit IgG (Jackson, 111-035-003) or anti-mouse IgG (Jackson). HRP substrate (GE Healthcare) was used for the detection of chemical luminescence, and FUJIFILM LAS-4000 was used for image acquisition.

ACHN cells = assay: Alamar Blue viability assay, ACHN; format: cell-based; conditions: Homo sapiens, 168 h, treatment for 7 days, read-out: IC50, cell viability
Description: as §2

A498 cells = assay: Alamar Blue viability assay, A498; format: cell-based; conditions: Homo sapiens, 168 h; A498, treatment for 7 days; read-out: IC50, cell viability
Description: as §2

BRD4-BD2 = BRD4-BD2 (Homo sapiens, UniProt O60885); assay: ALPHA assay, displacement of BRD4-BD2 from acetylated H4 peptide; format: binding
Description: as §3, §1
IC50 determination of BDF-1253 against BRD4-BD1 and BRD4-BD2 using Alpha Screen method.

Compound: O=[N+]([O-])c1ccc(O)c2ncccc12 [Nitroxoline]
- IC50 (BRD4-BD1): 980 nM

Compound: CC(=O)Nc1cc(Cn2ccnc2)c2cccc(O)c2n1 [BDF-1253]
- inhibition of normal cell viability (RCTEC normal cell line): little inhibition
- IC50 (BRD4-BD1): 287 nM
- IC50 (786-O cells; Homo sapiens, 786-0, 168 h, 786-O, treatment for 7 days, read-out: IC50, cell viability): 1510 nM
- effect on RCC cell proliferation (786-O cells; RCC 786-o cells, in words): inhibited the proliferation
- effect on non-BET BRD-containing proteins or other epigenetic enzymes [1]: minimal effects
- mRNA expression levels of c-Myc, Bcl-2, and CDK6 (BET target gene transcription) [2]: inhibited expression; also recorded: dose-dependently decreased
- inhibition of normal cell viability (HUVEC normal cell line): little inhibition
- IC50 (Caki cells): 3570 nM
- c-Myc expression in tumors (immunoblotting) (786-O xenograft tumor): reduced
- tumor size (786-O xenograft tumor; 21 days, 786-O xenograft): remarkable reduction in tumor size
- body weight / toxicity (786-O xenograft tumor; during dosing): no obvious loss of body weight or toxicity
- effect on BET family proteins (BET family proteins): selectively inhibited BET family proteins
- PRAP and Caspase3 cleavage and expression of pro-apoptotic protein Bax [3]: increased PRAP and Caspase3 cleavage and elevated expression of pro-apoptotic protein Bax
- protein abundance of c-Myc, Bcl-2 (BRD4 downstream effectors) [3]: reduced after the treatment, in a dose-dependent manner
- IC50 (ACHN cells): 2070 nM
- IC50 (A498 cells): 1390 nM
- selectivity for BRD4-BD1 or BRD4-BD2 domain (BRD4-BD2): no obvious selectivity
